Experimental data published in US20240207292A1, “BORONIC ACID COMPOUNDS, COMPOSITIONS AND METHODS” (Trustees of Tufts College, priority 2021, published 2024).

Experiment: Stability of 6555 with sulfur-containing and other stabilizers, 50 mM AAPH at 80° C. for 30 mins (Tables 7-9)
Assay type: physicochemical
Settings: for 6555 Remaining (%): 50 mM AAPH, 80° C., 0.5 hr, (+) mode, sodium ascorbate 5 mM, sodium gentisate 2 mM, sodium metabisulfite 5 mM
Excerpt: The effect of specified sulfur-containing compounds and other stabilizer compounds (including non-sulfur-containing stabilizer compounds) and mixtures of sulfur-containing compounds and non-sulfur-containing stabilizer compounds with the boronic acid compound 6555 (structure shown above) at various pH values.

6555 Remaining (%) (disodium hydrosulfite 5 mM, pH 4.4): 95.3% | 6555 Remaining (%) (pH 4.5): 95.6% | 6555 Remain (%) (Sodium ascorbate (2.5 mM) +, Sodium gentisate (1 mM) +, Stabilizer (2.5 mM) Sodium sulfite, pH 5.1, SID 90517, AAPH 80° C. 30 mins): 94.1% | 6555 Remain (%) (ascorbate (2.5 mM) +, gentisate (1 mM) +, Sodium hydrosulfite 2.5 mM, pH 4.4, SID 90537, AAPH 80° C. 30 mins): 91.7% | 6555 Remain (%) (ascorbate (2.5 mM) +, gentisate (1 mM) +, Sodium hydrosulfite 5.0 mM, pH 4.5, SID 90542, AAPH 80° C. 30 mins): 94.3% | 6555 Remain (%) (ascorbate (2.5 mM) +, gentisate (1 mM) +, Sodium hydrosulfite 10.0 mM, pH 4.5, SID 90532, AAPH 80° C. 30 mins): 94.1% | 6555 Remain (%) (ascorbate (2.5 mM) +, gentisate (1 mM) +, Sodium hydrosulfite 25.0 mM, pH 4.3, SID 90539, AAPH 80° C. 30 mins): 94.1% | 6555 Remain (%) (ascorbate (2.5 mM) +, gentisate (1 mM) +, Sodium hydrosulfite 40.00 mM, pH 4.0, SID 90538, AAPH 80° C. 30 mins): 94.6% | 6555 Remain (%) (ascorbate (2.5 mM) +, gentisate (1 mM) +, Sodium sulfite 2.5 mM, pH 4.5, SID 90616, AAPH 80° C. 30 mins): 67.9% | 6555 Remain (%) (ascorbate (2.5 mM) +, gentisate (1 mM) +, Sodium sulfite 5.0 mM, pH 4.6, SID 90617, AAPH 80° C. 30 mins): 90.3% | 6555 Remain (%) (ascorbate (2.5 mM) +, gentisate (1 mM) +, Sodium sulfite 10.0 mM, pH 4.8, SID 90613, AAPH 80° C. 30 mins): 93.8% | 6555 Remain (%) (ascorbate (2.5 mM) +, gentisate (1 mM) +, Sodium sulfite 25.0 mM, pH 5.1, SID 90517, AAPH 80° C. 30 mins): 94.1% | 6555 Remain (%) (ascorbate (2.5 mM) +, gentisate (1 mM) +, Stabilizer (1 mM) NAM, pH 4.6, SID 90629, AAPH 80° C. 30 mins): 30.8% | 6555 Remain (%) (ascorbate (2.5 mM) +, gentisate (1 mM) +, Stabilizer (1 mM) Sodium hydrosulfite, pH 4.5, SID 90629, AAPH 80° C. 30 mins): 47.4% | 6555 Remain (%) (ascorbate (2.5 mM) +, gentisate (1 mM) +, Stabilizer (1 mM) Sodium metabisulfite, pH 4.5, SID 90628, AAPH 80° C. 30 mins): 71.1% | 6555 Remain (%) (ascorbate (2.5 mM) +, gentisate (1 mM) +, Stabilizer (2.5 mM) Acetone sodium bisulfite, pH 4.6, SID 90523, AAPH 80° C. 30 mins): 94.0% | 6555 Remain (%) (ascorbate (2.5 mM) +, gentisate (1 mM) +, Stabilizer (2.5 mM) Acetone sodium bisulfite, pH 4.6, SID 90621, second listing, AAPH 80° C. 30 mins): 73.1% | 6555 Remain (%) (ascorbate (2.5 mM) +, gentisate (1 mM) +, Stabilizer (2.5 mM) D-mannitol, pH 4.5, SID 90641, AAPH 80° C. 30 mins): 15.5% | 6555 Remain (%) (ascorbate (2.5 mM) +, gentisate (1 mM) +, Stabilizer (2.5 mM) MSM(dimethyl sulfone), pH 4.5, SID 90598, AAPH 80° C. 30 mins): 8.2% | 6555 Remain (%) (ascorbate (2.5 mM) +, gentisate (1 mM) +, Stabilizer (2.5 mM) N-Acetyl-L-phenylalanine, pH 4.0, SID 90610, AAPH 80° C. 30 mins): 20.1% | 6555 Remain (%) (ascorbate (2.5 mM) +, gentisate (1 mM) +, Stabilizer (2.5 mM) N-Acetyl-L-tyrosine, pH 4.0, SID 90589, AAPH 80° C. 30 mins): 13.6% | 6555 Remain (%) (ascorbate (2.5 mM) +, gentisate (1 mM) +, Stabilizer (2.5 mM) NAC, pH 4.1, SID 90582, AAPH 80° C. 30 mins): 31.4% | 6555 Remain (%) (ascorbate (2.5 mM) +, gentisate (1 mM) +, Stabilizer (2.5 mM) NAM, pH 4.0, SID 90543, AAPH 80° C. 30 mins): 90.8% | 6555 Remain (%) (ascorbate (2.5 mM) +, gentisate (1 mM) +, Stabilizer (2.5 mM) NAM, pH 4.5, SID 90623, second listing, AAPH 80° C. 30 mins): 53.3% | 6555 Remain (%) (ascorbate (2.5 mM) +, gentisate (1 mM) +, Stabilizer (2.5 mM) Potassium metabisulfite, pH 4.4, SID 90622, second listing, AAPH 80° C. 30 mins): 93.7% | 6555 Remain (%) (ascorbate (2.5 mM) +, gentisate (1 mM) +, Stabilizer (2.5 mM) Potassium metabisulfite, pH 4.5, SID 90526, AAPH 80° C. 30 mins): 94.1% | 6555 Remain (%) (ascorbate (2.5 mM) +, gentisate (1 mM) +, Stabilizer (2.5 mM) Sodium L-Glutamate monohydrate, pH 4.7, SID 90604, AAPH 80° C. 30 mins): 8.2% | 6555 Remain (%) (ascorbate (2.5 mM) +, gentisate (1 mM) +, Stabilizer (2.5 mM) Sodium formaldehydesulfoxylate dihydrate, pH 4.4, SID 90527, AAPH 80° C. 30 mins): 91.7% | 6555 Remain (%) (ascorbate (2.5 mM) +, gentisate (1 mM) +, Stabilizer (2.5 mM) Sodium formaldehydesulfoxylate dihydrate, pH 4.5, SID 90620, second listing, AAPH 80° C. 30 mins): 58.0% | 6555 Remain (%) (ascorbate (2.5 mM) +, gentisate (1 mM) +, Stabilizer (2.5 mM) Sodium hydrosulfite, pH 4.3, SID 90539, AAPH 80° C. 30 mins): 94.1% | 6555 Remain (%) (ascorbate (2.5 mM) +, gentisate (1 mM) +, Stabilizer (2.5 mM) Sodium hydrosulfite, pH 4.4, SID 90537, second listing, AAPH 80° C. 30 mins): 91.7% | 6555 Remain (%) (ascorbate (2.5 mM) +, gentisate (1 mM) +, Stabilizer (2.5 mM) Sodium metabisulfite, pH 4.4, SID 90515, AAPH 80° C. 30 mins): 93.8% | 6555 Remain (%) (ascorbate (2.5 mM) +, gentisate (1 mM) +, Stabilizer (2.5 mM) Sodium metabisulfite, pH 4.5, SID 90619, second listing, AAPH 80° C. 30 mins): 93.4% | 6555 Remain (%) (ascorbate (2.5 mM) +, gentisate (1 mM) +, Stabilizer (2.5 mM) Sodium sulfite, pH 4.5, SID 90616, second listing, AAPH 80° C. 30 mins): 67.9% | 6555 Remain (%) (ascorbate (2.5 mM) +, gentisate (1 mM) +, Stabilizer (2.5 mM) Thiourea, pH 4.5, SID 90607, AAPH 80° C. 30 mins): 84.1% | 6555 Remain (%) (ascorbate (2.5 mM) +, gentisate (1 mM) +, Stabilizer none, pH 5.1, SID 90525, AAPH 80° C. 30 mins): 16.7% | 6555 Remain (%) (ascorbate none, gentisate none, Stabilizer (2.5 mM) NAM, pH 4.0, SID 90640, AAPH 80° C. 30 mins): 85.9% | 6555 Remain (%) (ascorbate none, gentisate none, Stabilizer none, pH 4.6, SID 90646, AAPH 80° C. 30 mins): 55.8% | 6555 Remain (%) (mM: ascorbate 0, gentisate 0, NAM 5, metabisulfite 5, hydrosulfite 0, pH 4.3, SID 90664, 50 mM AAPH 80° C. 30 mins): 88.8% | 6555 Remain (%) (mM: ascorbate 2.5, gentisate 1, NAM 2.5, metabisulfite 2.5, hydrosulfite 0, pH 4.5, SID 90637, 50 mM AAPH 80° C. 30 mins): 94.8% | 6555 Remain (%) (mM: ascorbate 2.5, gentisate 1, NAM 10, metabisulfite 2.5, hydrosulfite 0, pH 4.0, SID 90638, 50 mM AAPH 80° C. 30 mins): 93.2% | 6555 Remain (%) (mM: ascorbate 2.5, gentisate 1, NAM 25, metabisulfite 2.5, hydrosulfite 0, pH 4.0, SID 90631, 50 mM AAPH 80° C. 30 mins): 92.2% | 6555 Remain (%) (mM: ascorbate 5, gentisate 2, NAM 0, metabisulfite 5, hydrosulfite 0, pH 4.5, SID 90643, 50 mM AAPH 80° C. 30 mins): 95.6% | 6555 Remain (%) (mM: ascorbate 5, gentisate 2, NAM 0, metabisulfite 5, hydrosulfite 5, pH 4.4, SID 90686, 50 mM AAPH 80° C. 30 mins): 95.3% | 6555 Remain (%) (mM: ascorbate 5, gentisate 2, NAM 5, metabisulfite 0, hydrosulfite 0, pH 4.5, SID 90642, 50 mM AAPH 80° C. 30 mins): 66.5% | 6555 Remain (%) (mM: ascorbate 5, gentisate 2, NAM 5, metabisulfite 0, hydrosulfite 5, pH 4.5, SID 90701, 50 mM AAPH 80° C. 30 mins): 95.7% | 6555 Remain (%) (mM: ascorbate 5, gentisate 2, NAM 5, metabisulfite 5, hydrosulfite 0, pH 4.5, SID 90639, 50 mM AAPH 80° C. 30 mins): 95.8% | 6555 Remain (%) (mM: first column (ascorbate) 2.5, gentisate 1, NAM 0, metabisulfite 2.5, hydrosulfite 0, pH 4.5, SID 90619, 50 mM AAPH 80° C. 30 mins): 93.4%
SMILES: C[C@@H](NC(=O)c1ccc(CNC(=O)CN2CCN(CC(=O)O)CCN(CC(=O)O)CCN(CC(=O)O)CC2)cc1)C(=O)N1CCC[C@H]1B(O)O [compound 6555, DOTA-aminomethyl-Bz-D-Ala-boroPro]
